This note sets out measurements from ChEMBL document CHEMBL4152377, “Design and Activity of Specific Hypoxia-Inducible Factor-2α (HIF-2α) Inhibitors for the Treatment of Clear Cell Renal Cell Carcinoma: Discovery of Clinical Candidate ( S)-3-((2,2-Difluoro-1-hydroxy-7-(methylsulfonyl)-2,3-dihydro-1 H-inden-4-yl)oxy)-5-fluorobenzonitrile (PT2385)” (J Med Chem, 2018).

The subject of data set [1] is Canis familiaris. The data set can be described thus: Oral bioavailability in Beagle dog at 10 mg/kg administered via gavage by UPLC analysis. The data set is classed as ADME, organism-based, Canis lupus familiaris. To be noted: in vivo.
Data set [2] relates to Mus musculus. The data set can be described thus: Minimum drug level in SCID/Biege mouse xenografted with human 786-O cells at 10 mg/kg, po bid for 3 days and measured after 12 hrs post last dose by LC-MS/MS analysis. The data set is classed as ADME, organism-based. The following applies: in vivo. For orientation: A xenograft is tissue or cells of one species grown in another, often human tumour cells in immunodeficient mice.

Data set [3] can be described thus: Half life in CD1 mouse at 10 mg/kg, po by UPLC analysis. The class given is ADME, organism-based. To be noted: in vivo.
The nature of data set [4]: Intrinsic clearance in rat liver microsomes at 1 uM measured up to 30 mins by LC-MS/MS analysis. The data set is classed as ADME, microsome. To be noted: read-out: CLH.
Data set [5] addresses T1, Cytochrome P450 2B6 (Homo sapiens, UniProt P20813).
T1 sequence (P20813 whole entry): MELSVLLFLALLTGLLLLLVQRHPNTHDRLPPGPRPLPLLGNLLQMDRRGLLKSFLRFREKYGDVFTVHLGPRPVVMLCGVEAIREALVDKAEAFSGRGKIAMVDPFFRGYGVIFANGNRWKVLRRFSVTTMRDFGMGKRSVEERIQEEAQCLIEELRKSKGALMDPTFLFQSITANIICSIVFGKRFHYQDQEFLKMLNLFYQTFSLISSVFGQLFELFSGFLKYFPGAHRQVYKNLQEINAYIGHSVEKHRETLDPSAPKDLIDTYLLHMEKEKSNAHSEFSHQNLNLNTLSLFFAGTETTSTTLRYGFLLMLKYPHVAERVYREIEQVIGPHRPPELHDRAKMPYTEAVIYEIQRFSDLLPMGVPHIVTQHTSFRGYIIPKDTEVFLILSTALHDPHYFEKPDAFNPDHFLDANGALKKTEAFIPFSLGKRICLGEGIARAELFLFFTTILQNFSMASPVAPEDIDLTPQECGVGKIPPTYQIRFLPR
The data set can be described thus: Inhibition of CYP2B6 in human liver microsomes using bupropion as substrate after 10 mins in presence of NADPH by LC-MS/MS analysis. The class given is ADME. A general note: Liver microsomes are a subcellular fraction often used to study metabolism.

Data set [6] relates to Rattus norvegicus. The data set can be described thus: Drug metabolism in Sprague-Dawley rat assessed as formation of 3-( (4-( ( D ifluoromethyl)-1,1-dioxido-3-oxo-2,3-dihydrobenzo[b]thiophen-5-yl)oxy)-5-fluorobenzonitrile at 10 mg/kg, po by UPLC analysis. The class given is ADME, organism-based. The following applies: in vivo.
Data set [7] deals with 786-0. The data set can be described thus: Antitumor activity against human 786-O cells xenografted in SCID/Biege mouse assessed as tumor regression at 10 mg/kg, po bid for 21 days. The data set is classed as functional, organism-based.
Data set [8] can be described thus: AUCt in Sprague-Dawley rat at 10 mg/kg, po via gavage by UPLC analysis. The class given is ADME, organism-based. To be noted: in vivo.
Data set [9] in a line: Half life in Sprague-Dawley rat at 10 mg/kg, po via gavage by UPLC analysis. To be noted: in vivo. The class given is ADME, organism-based.
In data set [10] the test system is Canis familiaris. The data set can be described thus: AUCt in Beagle dog at 10 mg/kg, po via gavage by UPLC analysis. The data set is classed as ADME, organism-based, Canis lupus familiaris. To be noted: in vivo.
Data set [11] is described as follows: Clearance in Sprague-Dawley rat at 3 mg/kg, iv by UPLC analysis. The data set is classed as ADME, organism-based. To be noted: in vivo.
Data set [12] deals with Mus musculus. The data set can be described thus: Toxicity in SCID/Biege mouse xenografted with human 786-O cells assessed as morbidity at 10 mg/kg, po bid for 21 days. The data set is classed as organism-based. The following applies: in vivo, 504 h.
The target of data set [13] is Cytochrome P450 2C9 (Homo sapiens, UniProt P11712). The data set can be described thus: Inhibition of CYP2C9 in human liver microsomes using diclofenac as substrate after 10 mins in presence of NADPH by LC-MS/MS analysis. The class given is ADME.
Data set [14] can be described thus: Clearance in CD1 mouse at 3 mg/kg, iv by UPLC analysis. To be noted: in vivo. The data set is classed as ADME, organism-based.
The target in data set [15] is Cytochrome P450 2C19 (Homo sapiens, UniProt P33261). The data set can be described thus: Inhibition of CYP2C19 in human liver microsomes using S-mephenytoin as substrate after 20 mins in presence of NADPH by LC-MS/MS analysis. The data set is classed as ADME.

The source made the active and inactive calls.

Sequence of Cytochrome P450 2C9 (P11712 whole entry): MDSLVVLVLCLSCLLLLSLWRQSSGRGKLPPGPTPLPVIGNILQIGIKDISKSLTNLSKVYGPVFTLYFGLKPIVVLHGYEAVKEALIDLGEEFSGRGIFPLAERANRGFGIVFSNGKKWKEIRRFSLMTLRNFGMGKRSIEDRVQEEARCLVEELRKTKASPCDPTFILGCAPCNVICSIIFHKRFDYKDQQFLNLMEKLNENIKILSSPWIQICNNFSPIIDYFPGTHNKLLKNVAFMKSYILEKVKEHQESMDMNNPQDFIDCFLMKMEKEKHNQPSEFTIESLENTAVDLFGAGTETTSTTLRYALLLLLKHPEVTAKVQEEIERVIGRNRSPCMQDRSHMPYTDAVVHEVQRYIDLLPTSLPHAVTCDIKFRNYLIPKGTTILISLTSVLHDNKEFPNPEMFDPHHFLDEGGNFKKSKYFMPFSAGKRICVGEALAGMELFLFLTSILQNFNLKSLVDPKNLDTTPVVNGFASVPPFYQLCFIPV
Sequence of Cytochrome P450 2C19 (P33261 whole entry): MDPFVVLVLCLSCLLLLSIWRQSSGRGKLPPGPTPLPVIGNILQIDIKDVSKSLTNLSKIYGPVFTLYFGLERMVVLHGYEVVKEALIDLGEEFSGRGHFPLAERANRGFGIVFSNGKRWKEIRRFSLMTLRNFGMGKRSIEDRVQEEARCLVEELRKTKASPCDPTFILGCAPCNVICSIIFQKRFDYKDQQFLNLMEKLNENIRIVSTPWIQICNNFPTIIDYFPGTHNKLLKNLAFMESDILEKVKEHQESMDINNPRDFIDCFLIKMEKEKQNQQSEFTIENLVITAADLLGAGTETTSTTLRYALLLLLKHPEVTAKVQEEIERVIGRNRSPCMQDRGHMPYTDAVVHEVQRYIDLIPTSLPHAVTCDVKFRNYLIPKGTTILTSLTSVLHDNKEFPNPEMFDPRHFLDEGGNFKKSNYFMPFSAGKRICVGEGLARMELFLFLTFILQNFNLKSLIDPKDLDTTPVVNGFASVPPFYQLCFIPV

Broadly, the half-life is the time needed for the level to fall by half in the phase considered. As a reminder, the IC50 is the concentration needed to halve the response being measured. Broadly, the AUC(0-t) is the area under the concentration-time curve up to a stated or last time point. A lower AUC(0-t) goes with less exposure. The clearance is the volume of plasma or blood freed of the substance per unit of time. For the compound `N#Cc1cc(F)cc(Oc2ccc3c(c2C(F)F)[C@@H](O)C(F)(F)S3(=O)=O)c1`, the F in data set [1] is 72%. In addition, the Drug uptake entry in data set [2] is on record as “Active”. The half-life in data set [3] was 6.5 h; in data set [9] it was 3.7 h. Moreover, in [4], the CLint scaled at 1 µM came to 9.1 mL/min/kg. In addition, the IC50 in data set [5] is greater than 50 µM; in [13] it was 15.7 µM. Moreover, the Drug metabolism entry in [6] is “Metabolite_Detected”. Moreover, the result in data set [7] was Active. The compound further showed an area under the curve AUC(0-t) in data set [8] of 5.49 µM·h. The AUCt in data set [10] worked out at 12.6 µM·h. Moreover, the clearance in data set [11] was 27.2 mL/min/kg; in data set [14] it was 70.6 mL/min/kg. Moreover, the Activity result in data set [12] is “Non-Toxic”.
As to `CS(=O)(=O)c1ccc(Oc2cc(F)cc(C#N)c2)c2c1[C@H](O)C(F)(F)C2`, the IC50 is 46 µM in data set [15], greater than 50 µM in data set [5] and 23 µM in data set [13]. In data set [1], this compound showed an F of 87%. The Drug uptake entry in [2] is “Active”. Besides, the half-life in [3] and in [9] was 3.3 h throughout. Moreover, the CLint scaled at 1 µM in [4] was 22.6 mL/min/kg. For the same compound, the outcome in data set [7] was Active. The AUC(0-t) in data set [8] amounted to 5.12 µM·h. In addition, in data set [10], the AUCt is 6.2 µM·h. The figures for the clearance in [11] and in data set [14] were 34.6 mL/min/kg and 29.2 mL/min/kg, respectively. Moreover, in data set [12], the Activity entry was “Non-Toxic”.
